One compound from US20170315129A1, “CANCER CELL DETECTION METHOD USING LIVING BODY-DERIVED CELLS OF BIOLOGICAL ORIGIN” (Hirosaki University, priority 2014, published 2017) can be followed below.

The subject of this assay is ascites cells obtained during an operation of a patient with ovarian cancer (serous adenocarcinoma). The assay is described as follows: Live-cell fluorescence imaging of cells in peritoneal washing, ovarian cancer patient (Example 1). The following applies: 100 μM 2-NBDLG and 20 μM 2TRLG in KRB, 5 minutes 37° C., FIG. 2B. The format is cell-based, human. The method, then: Immediately after the start of laparotomy for ovarian cancer (serous adenocarcinoma), the peritoneal cavity was washed with physiological saline for the purpose of collecting an ascitic fluid. A surplus portion of the resulting peritoneal washing was transferred into a 50 mL centrifuge tube. Subsequently, it was centrifuged at 1500 G for 2 minutes at room temperature, the supernatant was removed by decantation, and the pellet was dispersed by adding 2 mL of Krebs Ringer Buffer (KRB solution, see below) to obtain an ascites-cell suspension.
NaCl 129.0 mM, KCl 4.75 mM, KH2PO41.19 mM, MgSO4.7H2O 1.19 mM, CaC12.2H2O 1.0 mM, NaHCO35.02 mM, D-Glucose 5.6 mM, HEPES 10.0 mM (an adequate amount of 1M NaOH was added to adjust the pH to 7.35). […]
For fluorescence observation, observation and image acquisition were performed as follows after mounting the glass pate on a glass-slide holder dedicated for an all-in-one fluorescence microscope BZ-X700 (Keyence Corporation). […] Bright field images and fluorescence images of the target cells were taken at a high magnification of 40× or 100×. Commercially available filters for BZ-X700 were used for fluorescence detection. A GFP filter for BZ-X (green channel, OP-87763, Ex 470/40 nm, Em 525/50 nm, DM 495 nm) was used for fluorescence observation of 2-NBDLG. […]

In the case of `O=C[C@@H](Nc1ccc([N+](=O)[O-])c2nonc12)[C@H](O)[C@@H](O)[C@@H](O)CO` [2-NBDLG, 2-[N-(7-nitrobenz-2-oxa-1,3-diazole-4-yl)amino]-2-deoxy-L-glucose], the “fluorescence from 2-NBDLG (green wavelength region)” value by setting is: (apparent peritoneal mesothelial cells) “do not show fluorescence”; (morphologically suspected cancer cells) “intense fluorescence”.
